Measured values published in patent US20100298141A1, “SUBSTITUTED PYRIDINE N-OXIDE HERBICIDES” (E. I. DU PONT DE NEMOURS AND COMPANY, priority 2007, published 2010).

How the values were obtained:
Ricefield Bulrush = experiment: Test C flooded paddy test; type: in vivo; details: Flood
Source text: (§1) At time of treatment, test pots were flooded to 3 cm above the soil surface, treated by application of test compounds directly to the paddy water, and then maintained at that water depth for the duration of the test. Treated plants and controls were maintained in a greenhouse for 13 to 15 days, after which time all species were compared to controls and visually evaluated. […] A dash (-) response means no test result.

Redstem = experiment: Test C flooded paddy test; type: in vivo; details: Flood
Source text: as §1

rice = experiment: Test B flooded paddy test; type: in vivo, Oryza sativa; details: Flood, 250 g ai/ha, 13 to 15 days; scale 0 to 100, 0 no effect, 100 complete control
Source text: as §1

itchgrass = experiment: Test G preemergence test; type: in vivo, Rottboellia cochinchinensis; details: scale 0 to 100
blackgrass = experiment: Test D preemergence test; type: in vivo, Alopecurus myosuroides; details: scale 0 to 100
Source text: (§2) Seeds of plant species selected from annual bluegrass (Poa annua), blackgrass (Alopecurus myosuroides), downy bromegrass (Bromus tectorum), field violet (Viola arvensis), green foxtail (Setaria viridis), Italian ryegrass (Lolium multiflorum), littleseed canarygrass (Phalaris minor), spring wheat (Triticum aestivum), wild oat (Avena fatua), […]), winter barley (Hordeum vulgare), and winter wheat (Triticum aestivum) were planted and treated preemergence with test chemicals formulated in a non-phytotoxic solvent mixture which included a surfactant. […] A dash (-) response means no test result.

annual bluegrass = experiment: Test D preemergence test; type: in vivo, Poa annua; details: scale 0 to 100
Source text: as §2

millet = experiment: Test G preemergence test; type: in vivo, Panicum miliaceum; details: scale 0 to 100
sugarcane = experiment: Test F pre-/postemergence test; type: in vivo, Saccharum officinarum; details: for Sugarcane plant response rating: postemergence
Source text: Seeds of plant species selected from bermudagrass (Cynodon dactylon), Surinam grass (Brachiaria decumbens), large crabgrass (Digitaria sanguinalis), green foxtail (Setaria viridis), goosegrass (Eleusine indica), johnsongrass (Sorghum halepense), kochia (Kochia scoparia), pitted morningglory (Ipomoea lacunosa), purple nutsedge (Cyperus rotundus), common ragweed (Ambrosia elation), mustard (Brassica nigra), guineagrass (Panicum maximum), […] (Paspalum dilatatum), barnyardgrass (Echinochloa crus-galli), southern sandbur (Cenchrus echinatus), common sowthistle (Sonchus oleraceous), prickly […] spinosa), Italian ryegrass (Lolium multiflorum), common purslane (Portulaca oleracea), broadleaf signalgrass (Brachiaria platyphylla), common groundsel (Senecio vulgaris), common chickweed (Stellaria media), Virginia dayflower (Commelina virginica), annual bluegrass (Poa annua), naked crabgrass (Digitaria nuda), […] cochinchinensis), quackgrass (Elytrigia repens), Canada horseweed (Conyza canadensis), field bindweed (Convolvulus arvensis), […] (Bidens bipinnata), common mallow (Malva sylvestris), Russian thistle (Salsola kali), and sugarcane (Saccharum officinarum) were planted and treated preemergence with test chemicals formulated in a non-phytotoxic solvent mixture which included a surfactant. At a different time, sugarcane was treated with postemergence applications of some of the test chemicals formulated in the same manner. Plants were approximately 3- to 4-leaf stage for the postemergence treatments. Treated plants and controls were maintained in a greenhouse for 14 to 21 days, after which time all species were compared to controls and visually evaluated. […] A dash (-) response means no test result.

[1] = 31 g ai/ha, scale 0 to 100 (0 no effect, 100 complete control)
[2] = 62 g ai/ha, scale 0 to 100, 0 no effect, 100 complete control, 13 to 15 days
[3] = 125 g ai/ha, scale 0 to 100, 0 no effect, 100 complete control, 13 to 15 days
[4] = 250 g ai/ha, scale 0 to 100 (0 no effect, 100 complete control)
[5] = 250 g ai/ha, preemergence, scale 0 to 100

SMILES | Plant response rating, Ricefield Bulrush (Ricefield Bulrush; [1]) | Plant response rating, Ricefield Bulrush (Ricefield Bulrush; [2]) | Plant response rating, Ricefield Bulrush (Ricefield Bulrush; [3]) | Plant response rating, Ricefield Bulrush (Ricefield Bulrush; [4]) | Plant response rating, Redstem (Redstem; [1]) | Plant response rating, Redstem (Redstem; [2]) | Plant response rating, Redstem (Redstem; [3]) | Plant response rating, Redstem (Redstem; [4]) | Plant response rating, Rice, Transplanted (rice) | Plant response rating, Itchgrass (itchgrass; 31 g ai/ha) | Plant response rating, Itchgrass (itchgrass; 62 g ai/ha) | Plant response rating, Itchgrass (itchgrass; 125 g ai/ha) | Plant response rating, Itchgrass (itchgrass; 250 g ai/ha) | Plant response rating, Blackgrass (blackgrass; 31 g ai/ha) | Plant response rating, Blackgrass (blackgrass; 62 g ai/ha) | Plant response rating, Blackgrass (blackgrass; 125 g ai/ha) | Plant response rating, Blackgrass (blackgrass; 250 g ai/ha) | Plant response rating, Bluegrass (annual bluegrass; 31 g ai/ha) | Plant response rating, Bluegrass (annual bluegrass; 62 g ai/ha) | Plant response rating, Bluegrass (annual bluegrass; 125 g ai/ha) | also measured
Cc1cc[n+]([O-])c(S(=O)(=O)Cc2c(C(F)(F)F)nn(C)c2OC(F)F)c1 [Compound 2] | 20 | 20 | 45 | 80 | 0 | 30 | 65 | 85 | 80 | 0 | 15 | 30 | 50 | 0 | 70 | 100 | 100 | 20 | 40 | 100 | Plant response rating, Bluegrass (annual bluegrass; 250 g ai/ha): 100; Plant response rating, Millet (millet; 31 g ai/ha): 0; Plant response rating, Millet (millet; 62 g ai/ha): 0; Plant response rating, Millet (millet; 125 g ai/ha): 75; Plant response rating, Millet (millet; 250 g ai/ha): 100; Plant response rating, Sugarcane (sugarcane; 125 g ai/ha, preemergence, scale 0 to 100): 70; Plant response rating, Sugarcane (sugarcane; 500 g ai/ha, preemergence, scale 0 to 100): 83
CC(c1c(C(F)(F)F)nn(C)c1OC(F)F)S(=O)(=O)c1cccc[n+]1[O-] (stereo not shown) [Compound 5] | 0 | 45 | 80 | 85 | 40 | 80 | 80 | 80 | 70 | – | – | – | – | – | – | – | – | – | – | – | Sugarcane plant response rating (sugarcane; 62 g ai/ha, scale 0 to 100): 0; Sugarcane plant response rating (sugarcane; [4]): 7; Plant response rating, Sugarcane (sugarcane; [5]): 7
Cn1nc(C(F)(F)F)c(C[S+]([O-])c2cccc[n+]2[O-])c1OC(F)F (stereo not shown) [Compound 3] | 55 | 55 | 75 | 80 | 20 | 40 | 45 | 85 | 60 | 0 | 45 | 60 | 90 | 0 | 20 | 100 | 100 | 0 | 20 | 100 | Plant response rating, Bluegrass (annual bluegrass; 250 g ai/ha): 100; Plant response rating, Millet (millet; 31 g ai/ha): 0; Plant response rating, Millet (millet; 62 g ai/ha): 0; Plant response rating, Millet (millet; 125 g ai/ha): 15; Plant response rating, Millet (millet; 250 g ai/ha): 90; Plant response rating, Sugarcane (sugarcane; 62 g ai/ha, Preemergence, scale 0 to 100): 17; Sugarcane plant response rating (sugarcane; 62 g ai/ha, scale 0 to 100): 32; Sugarcane plant response rating (sugarcane; [4]): 50; Plant response rating, Sugarcane (sugarcane; [5]): 50
Cn1nc(C(F)(F)F)c(CS(=O)(=O)c2cccc[n+]2[O-])c1OC(F)F [Compound 4] | 0 | 0 | 60 | 80 | 40 | 55 | 85 | 80 | 90 | 0 | 20 | 30 | 60 | 0 | 30 | 50 | 100 | 50 | 50 | 80 | Plant response rating, Bluegrass (annual bluegrass; 250 g ai/ha): 100; Plant response rating, Millet (millet; 31 g ai/ha): 20; Plant response rating, Millet (millet; 62 g ai/ha): 40; Plant response rating, Millet (millet; 125 g ai/ha): 40; Plant response rating, Millet (millet; 250 g ai/ha): 100
Cc1cc[n+]([O-])c([S+]([O-])Cc2c(C(F)(F)F)nn(C)c2OC(F)F)c1 (stereo not shown) [Compound 1] | 75 | 75 | 75 | 85 | 40 | 60 | 80 | 85 | 80 | 20 | 35 | 40 | 60 | 5 | 60 | 70 | 100 | 0 | 75 | 90 | Plant response rating, Bluegrass (annual bluegrass; 250 g ai/ha): 100; Plant response rating, Millet (millet; 31 g ai/ha): 0; Plant response rating, Millet (millet; 62 g ai/ha): 25; Plant response rating, Millet (millet; 125 g ai/ha): 20; Plant response rating, Millet (millet; 250 g ai/ha): 100
